Results reported in patent US20230373985A1 (Origenis Gmbh, priority 2020, published 2023).

Experiments:
[1] = molecular target: T1, wt human JAK1, catalytic site (Homo sapiens, UniProt P23458); assay: HTRF KinEASE assay, JAK1; type: biochemical; details: 2.5 μM ATP; read-out: IC50, Activity Toward JAK1
T1 construct: wt human JAK1, catalytic site; purchased ThermoFisher
In short: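 Two-step HTRF KinEASE assay: compound, kinase/biotinylated TK substrate and ATP were incubated at least 30 min at room temperature. Antibody plus streptavidin-XL665 was then added and plates were read after 60 min. Inhibition was derived from emission ratios according to the kit protocol.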

[2] = molecular target: T2, wt human TYK2, catalytic site (Homo sapiens, UniProt P29597); assay: HTRF KinEASE assay, TYK2; type: biochemical; details: 1 μM ATP; read-out: IC50, Activity Toward TYK2
T2 construct: wt human TYK2, catalytic site; purchased SignalChem
T2 sequence (P29597 897-1176 limits assumed): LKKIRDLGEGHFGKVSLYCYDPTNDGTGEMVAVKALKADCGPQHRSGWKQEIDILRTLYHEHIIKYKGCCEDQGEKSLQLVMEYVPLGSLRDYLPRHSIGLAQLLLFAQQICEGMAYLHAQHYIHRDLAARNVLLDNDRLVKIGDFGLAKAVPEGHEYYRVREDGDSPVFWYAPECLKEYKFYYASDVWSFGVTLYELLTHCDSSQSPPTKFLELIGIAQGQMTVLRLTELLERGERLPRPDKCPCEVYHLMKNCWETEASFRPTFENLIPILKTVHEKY
In short: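 HTRF KinEASE-TK readout with 1 μM biotinylated TK substrate in 1× kinase buffer, ≥30 min at room temperature, then antibody/streptavidin-XL665 detection for 60 min. TYK2 at 2 nM with 1 μM ATP; JAK2 at 1 nM with 100 μM ATP. Analysis uses emission ratios.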

T1 sequence (P23458 875-1153 limits assumed): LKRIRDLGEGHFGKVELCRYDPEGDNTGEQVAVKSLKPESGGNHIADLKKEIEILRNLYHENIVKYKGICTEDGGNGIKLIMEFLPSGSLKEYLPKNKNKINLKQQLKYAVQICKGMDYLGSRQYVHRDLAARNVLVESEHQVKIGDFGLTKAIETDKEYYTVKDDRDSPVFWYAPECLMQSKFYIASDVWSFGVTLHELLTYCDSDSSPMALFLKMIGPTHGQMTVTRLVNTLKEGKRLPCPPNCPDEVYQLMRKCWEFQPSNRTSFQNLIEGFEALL

Row | IC50 [1] [nM] | IC50 [2] [nM] | SMILES
1 | < 10 | < 10 | NC(=O)c1nn(-c2c(Cl)cccc2Cl)nc1Nc1ccc(C(=O)N2CCSCC2)cc1 [compound 170, 2-(2,6-dichlorophenyl)-5-((4-(thiomorpholine-4-carbonyl)phenyl)amino)-2H-1,2,3-triazole-4-carboxamide]
2 | < 10 | 10 to 100 | NC(=O)c1nn(-c2c(Cl)cccc2Cl)nc1Nc1cnn(CC(=O)N2CCS(=O)(=O)CC2)c1 [compound 174, 2-(2,6-dichlorophenyl)-5-((1-(2-(1,1-dioxidothiomorpholino)-2-oxoethyl)-1H-pyrazol-4-yl)amino)-2H-1,2,3-triazole-4-carboxamide]
3 | < 10 | < 10 | NC(=O)c1nn(-c2c(Cl)cc(F)cc2Cl)nc1Nc1ccc(C(=O)N2CCS(=O)(=O)CC2)cc1 [compound 175, 2-(2,6-dichloro-4-fluorophenyl)-5-((4-(1,1-dioxidothiomorpholine-4-carbonyl)phenyl)amino)-2H-1,2,3-triazole-4-carboxamide]
4 | 10 to 100 | 100 to 1000 | COc1cc(Cl)c(-n2nc(Nc3ccc(C(=O)N4CCSCC4)cc3)c(C(N)=O)n2)c(Cl)c1 [compound 176, 2-(2,6-dichloro-4-methoxyphenyl)-5-((4-(thiomorpholine-4-carbonyl)phenyl)amino)-2H-1,2,3-triazole-4-carboxamide]
5 | < 10 | 10 to 100 | NC(=O)c1nn(-c2c(Cl)cc(F)cc2Cl)nc1Nc1ccc(C(=O)N2CCSCC2)cc1 [compound 177, 2-(2,6-dichloro-4-fluorophenyl)-5-((4-(thiomorpholine-4-carbonyl)phenyl)amino)-2H-1,2,3-triazole-4-carboxamide]
6 | 100 to 1000 | 10 to 100 | Cn1cncc1-c1ccc(Nc2cn(-c3c(Cl)cccc3Cl)nc2C(N)=O)cc1 [compound 204, 1-(2,6-dichlorophenyl)-4-((4-(1-methyl-1H-imidazol-5-yl)phenyl)amino)-1H-pyrazole-3-carboxamide]
7 | 100 to 1000 | 10 to 100 | NC(=O)c1nn(-c2c(F)cccc2Cl)cc1Nc1ccc(-n2cc3c(n2)CCOC3)cc1 [compound 209, 1-(2-chloro-6-fluorophenyl)-4-((4-(6,7-dihydropyrano[4,3-c]pyrazol-2(4H)-yl)phenyl)amino)-1H-pyrazole-3-carboxamide]
8 | 100 to 1000 | 10 to 100 | Cc1cnnc(-c2ccc(Nc3cn(-c4c(Cl)cccc4Cl)nc3C(N)=O)cc2)c1C [compound 213, 1-(2,6-dichlorophenyl)-4-((4-(4,5-dimethylpyridazin-3-yl)phenyl)amino)-1H-pyrazole-3-carboxamide]
9 | 10 to 100 | < 10 | Cn1nc(C(F)(F)F)nc1-c1ccc(Nc2cn(-c3c(Cl)cccc3Cl)nc2C(N)=O)cc1 [compound 215, 1-(2,6-dichlorophenyl)-4-((4-(1-methyl-3-(trifluoromethyl)-1H-1,2,4-triazol-5-yl)phenyl)amino)-1H-pyrazole-3-carboxamide]
10 | 10 to 100 | 10 to 100 | Cc1cc(C)n(-c2ccc(Nc3cn(-c4c(Cl)cccc4Cl)nc3C(N)=O)cc2)n1 [compound 216, 1-(2,6-dichlorophenyl)-4-((4-(3,5-dimethyl-1H-pyrazol-1-yl)phenyl)amino)-1H-pyrazole-3-carboxamide]
11 | 100 to 1000 | 100 to 1000 | Cc1cnn(-c2ccc(Nc3cn(-c4c(Cl)cccc4Cl)nc3C(N)=O)cc2)c1C [compound 218, 1-(2,6-dichlorophenyl)-4-((4-(4,5-dimethyl-1H-pyrazol-1-yl)phenyl)amino)-1H-pyrazole-3-carboxamide]
12 | 100 to 1000 | 100 to 1000 | Cc1nn(-c2ccc(Nc3cn(-c4c(Cl)cccc4Cl)nc3C(N)=O)cc2)c(C)c1C [compound 224, 1-(2,6-dichlorophenyl)-4-((4-(3,4,5-trimethyl-1H-pyrazol-1-yl)phenyl)amino)-1H-pyrazole-3-carboxamide]
13 | 100 to 1000 | 10 to 100 | NC(=O)c1nn(-c2c(Cl)cccc2Cl)cc1Nc1ccc(C(=O)N2CCCC2)cn1 [compound 226, 1-(2,6-dichlorophenyl)-4-((5-(pyrrolidine-1-carbonyl)pyridin-2-yl)amino)-1H-pyrazole-3-carboxamide]
14 | 100 to 1000 | 100 to 1000 | CCc1ccn(-c2ccc(Nc3cn(-c4c(Cl)cccc4Cl)nc3C(N)=O)cc2)n1 [compound 240, 1-(2,6-dichlorophenyl)-4-((4-(3-ethyl-1H-pyrazol-1-yl)phenyl)amino)-1H-pyrazole-3-carboxamide]
15 | < 10 | 10 to 100 | CCc1ccnn1-c1ccc(Nc2cn(-c3c(Cl)cccc3Cl)nc2C(N)=O)cc1 [compound 241, 1-(2,6-dichlorophenyl)-4-((4-(5-ethyl-1H-pyrazol-1-yl)phenyl)amino)-1H-pyrazole-3-carboxamide]
16 | 10 to 100 | 10 to 100 | Cn1c(-c2ccc(Nc3cn(-c4c(Cl)cccc4Cl)nc3C(N)=O)cc2)nnc1C(F)(F)F [compound 242, 1-(2,6-dichlorophenyl)-4-((4-(4-methyl-5-(trifluoromethyl)-4H-1,2,4-triazol-3-yl)phenyl)amino)-1H-pyrazole-3-carboxamide]
17 | 10 to 100 | < 10 | Cc1nnnn1-c1ccc(Nc2cn(-c3c(Cl)cccc3Cl)nc2C(N)=O)cc1 [compound 243, 1-(2,6-dichlorophenyl)-4-((4-(5-methyl-1H-tetrazol-1-yl)phenyl)amino)-1H-pyrazole-3-carboxamide]
18 | 100 to 1000 | 100 to 1000 | Cc1c(C#N)cnn1-c1ccc(Nc2cn(-c3c(Cl)cccc3Cl)nc2C(N)=O)cc1 [compound 253, 4-((4-(4-cyano-5-methyl-1H-pyrazol-1-yl)phenyl)amino)-1-(2,6-dichlorophenyl)-1H-pyrazole-3-carboxamide]
19 | 10 to 100 | < 10 | NC(=O)c1nn(-c2c(Cl)cccc2Cl)cc1Nc1ccc(C(=O)N2CC(F)(F)C(F)(F)C2)cc1 [compound 254, 1-(2,6-dichlorophenyl)-4-((4-(3,3,4,4-tetrafluoropyrrolidine-1-carbonyl)phenyl)amino)-1H-pyrazole-3-carboxamide]
20 | 100 to 1000 | 100 to 1000 | CC(C)Oc1ccc(Nc2cn(-c3c(Cl)cccc3Cl)nc2C(N)=O)cc1 [compound 261, 1-(2,6-dichlorophenyl)-4-((4-isopropoxyphenyl)amino)-1H-pyrazole-3-carboxamide]
21 | 100 to 1000 | 100 to 1000 | CC(C)c1ccn(-c2ccc(Nc3cn(-c4c(Cl)cccc4Cl)nc3C(N)=O)cc2)n1 [compound 263, 1-(2,6-dichlorophenyl)-4-((4-(3-isopropyl-1H-pyrazol-1-yl)phenyl)amino)-1H-pyrazole-3-carboxamide]
22 | 10 to 100 | 10 to 100 | CN1CCn2c(nnc2-c2ccc(Nc3cn(-c4c(Cl)cccc4Cl)nc3C(N)=O)cc2)C1 [compound 269, 1-(2,6-dichlorophenyl)-4-((4-(7-methyl-5,6,7,8-tetrahydro-[1,2,4]triazolo[4,3-a]pyrazin-3-yl)phenyl)amino)-1H-pyrazole-3-carboxamide]
23 | 10 to 100 | 10 to 100 | CCS(=O)(=O)Nc1ccc(Nc2cn(-c3c(Cl)cccc3Cl)nc2C(N)=O)cc1 [compound 270, 1-(2,6-dichlorophenyl)-4-((4-(ethylsulfonamido)phenyl)amino)-1H-pyrazole-3-carboxamide]
